KLS-positive rate, Viable cell count and mCherry-positive rate data for six compounds are collected here from patent US20230094952A1, “Method for Culturing Hematopoietic Stem Cells” (Sumitomo Pharma Co., Ltd., priority 2019, published 2023).

Structures are written as SMILES.

For the experiment, the system named is mouse long-term hematopoietic stem cells. Nature of the experiment: Reproducibility and concentration dependence test: 1-week culture of sorted Hoxb5-tri-mCherry mouse long-term hematopoietic stem cells, flow cytometry. The class given is cell-based. The following applies: Table 4, day 7 of culture, n=2. The protocol:
Mice with insertion of a nucleic acid sequence containing three copies of a gene encoding the fluorescent protein mCherry to the C terminus of the mouse endogenous HoxB5 gene (Hoxb5-tri-mCherry) were used (triple-mCherry Hoxb5 knock-in mice; Non Patent Literature 1). The mice were housed under environmental conditions such that the room temperature and the humidity were 20 to 26° C. and 40 to 70%, respectively, under light for 12 hours and under dark for 12 hours (illumination: 8:00 a.m. to 8:00 p.m.).
Bone marrow cells were collected from the tibia, femur, humerus, and pelvis in each side of each of the mice, and gathered in a mortar. A buffer obtained by adding thermally deactivated bovine serum (manufactured by Gibco) at a final concentration of 2% and EDTA at a final concentration of 2 mM to Ca^2+-free and Mg^2+-free PBS was added, and the resultant was broken with a pestle to obtain a cell population including hematopoietic stem cells.
First, the thus-obtained cell population including hematopoietic stem cells was passed through strainers (meshes) of 100 μm, 70 μm, and 40 μm. The cell population was stained with an APC-binding anti-c-Kit (2B8) and fractionated with anti-APC magnetic beads and an LS column (both manufactured by Miltenyi Biotec) to obtain a cell population enriched with hematopoietic stem cells and progenitor cells.
Subsequently, cells being c-Kit-positive were stained with antibodies for the following cell surface markers.
Staining with the antibodies was performed at 4° C., and the cells were incubated for 30 minutes. For staining with the CD34 antibody, the cells were incubated for 90 minutes. Dead cell staining was performed with SYTOX Red Dead Cell Stain (manufactured by Life Technologies) in accordance with a method recommended by the manufacturer.
Flow cytometry analysis and cell classification (cell sorting) were performed with a FACS Aria II cell sorter (manufactured by BD Biosciences), wherein Lineage-negative, c-Kit-positive, Sca-1-positive, Flk2-negative, CD34-negative or weakly CD34-positive, CD150-positive, and mCherry-positive fractions were regarded as long-term hematopoietic stem cells, and analysis was performed with the software FlowJo (manufactured by Tree Star, Inc.).
The cells after classification were seeded in a 96-well plate. A cell culture medium was prepared by adding Stem Cell Factor (SCF, manufactured by PeproTech, Inc.) and Thrombopoietin (TPO, manufactured by PeproTech, Inc.) to StemSpan SFEM culture medium (manufactured by […] Technologies Inc.) and added in advance to a cell culture 96-well plate (manufactured by BD Biosciences) at 100 μL/well, and the cells sorted with the FACS Aria II cell sorter (BD Biosciences) were then seeded at 10 cells/well.
[…] Thereafter, the cells were cultured in a CO2 incubator under conditions of 37° C. and 5% CO2 for 1 week.
After culture, the cells were stained with the antibodies for the surface markers c-Kit and Sca-1, Ter-119, B220, CD3, CD4, CD8a, Gr-1, and CD11b, and the ratio and post-growth cell count of a KLS fraction (c-Kit^+, Lin^−, Sca-1^+) or an mCherry-positive fraction given with use of a FACS Aria II cell sorter were analyzed by using FlowJo (BD Biosciences). The mCherry-positive fraction is a cell fraction expressing the Hoxb5 gene, and the KLS fraction is a cell fraction being c-Kit-positive, Lin-negative, and Sca-1-positive, and includes hematopoietic stem cells and multipotent progenitor cells as main components. […]

As for `C[C@H]1[C@@H](C(N)=O)O[C@@H]2O[C@@]3(C)CC[C@H]4[C@H](C)CC[C@@H]1[C@@]24OO3` [Example 1-15, (3R,5aS,6R,8aS,9R,10S,12R,12aR)-3,6,9-Trimethyldecahydro-12H-3,12-epoxypyrano[4,3-j][1,2]benzodioxepine-10-carboxamide], the KLS-positive rate by setting is: (compound 0.1 μM) 6.8%; (compound 0.3 μM) 13.0%; (compound 1 μM) 17.9%; (compound 3 μM) 40.0%; (compound 10 μM) 54.9%. In addition, the Viable cell count is, setting by setting: (compound 0.1 μM) 379.0 cell; (compound 0.3 μM) 540.0 cell; (compound 1 μM) 258.0 cell; (compound 3 μM) 111.0 cell; (compound 10 μM) 42.5 cell. Moreover, the mCherry-positive rate by setting is: (compound 0.1 μM) 7.1%; (compound 0.3 μM) 13.3%; (compound 1 μM) 47.3%; (compound 3 μM) 87.1%; (compound 10 μM) 97.6%.
With `C[C@H]1[C@@H](CN)O[C@@H]2O[C@@]3(C)CC[C@H]4[C@H](C)CC[C@@H]1[C@@]24OO3` [Example 1-17, 1-[(3R,5aS,6R,8aS,9R,10S,12R,12aR)-3,6,9-Trimethyldecahydro-12H-3,12-epoxypyrano[4,3-j][1,2]benzodioxepin-10-yl]methanamine], the KLS-positive rate by setting is: (compound 0.1 μM) 15.9%; (compound 0.3 μM) 16.1%; (compound 1 μM) 19.4%; (compound 3 μM) 24.0%; (compound 10 μM) 51.8%. For the same compound, the Viable cell count by setting is: (compound 0.1 μM) 947.0 cell; (compound 0.3 μM) 902.0 cell; (compound 1 μM) 641.5 cell; (compound 3 μM) 315.0 cell; (compound 10 μM) 80.0 cell. For the same compound, the mCherry-positive rate by setting is: (compound 0.1 μM) 4.9%; (compound 0.3 μM) 2.5%; (compound 1 μM) 16.1%; (compound 3 μM) 70.1%; (compound 10 μM) 100.0%.
For the compound `C[C@H]1[C@H](CN)O[C@@H]2O[C@@]3(C)CC[C@H]4[C@H](C)CC[C@@H]1[C@@]24OO3` [Example 1-18, 1-[(3R,5aS,6R,8aS,9R,10R,12R,12aR)-3,6,9-Trimethyldecahydro-12H-3,12-epoxypyrano[4,3-j][1,2]benzodioxepin-10-yl]methanamine], the KLS-positive rate came to 10.9% (compound 0.1 μM); 16.7% (compound 0.3 μM); 22.4% (compound 1 μM); 30.9% (compound 3 μM); 49.6% (compound 10 μM). The Viable cell count is 405.0 cell (compound 0.1 μM); 191.0 cell (compound 0.3 μM); 162.0 cell (compound 1 μM); 154.0 cell (compound 3 μM); 72.5 cell (compound 10 μM). Also, the mCherry-positive rate is on record as 23.5% (compound 0.1 μM); 15.4% (compound 0.3 μM); 19.2% (compound 1 μM); 80.5% (compound 3 μM); 98.6% (compound 10 μM).
On to `CC(C)O[C@H]1O[C@@H]2O[C@@]3(C)CC[C@H]4[C@H](C)CC[C@@H]([C@H]1C)[C@@]24OO3` [Example 1-19, (3R,5aS,6R,8aS,9R,10S,12R,12aR)-3,6,9-Trimethyl-10-[(propan-2-yl)oxy]decahydro-12H-3,12-epoxypyrano[4,3-j][1,2]benzodioxepine], for which the KLS-positive rate by setting is: (compound 0.1 μM) 9.5%; (compound 0.3 μM) 41.7%; (compound 1 μM) 4.2%; (compound 3 μM) 0.0%; (compound 10 μM) 0.0%. The compound further returned a Viable cell count (compound 0.1 μM) of 469.0 cell; a Viable cell count (compound 0.3 μM) of 151.0 cell; a Viable cell count (compound 1 μM) of 6.0 cell; a Viable cell count (compound 3 μM) of 0.0 cell; a Viable cell count (compound 10 μM) of 0.5 cell. Also, the mCherry-positive rate runs as follows: (compound 0.1 μM) 56.3%; (compound 0.3 μM) 96.2%; (compound 1 μM) 50.0%; (compound 3 μM) 0.0%; (compound 10 μM) 50.0%.
`C[C@H]1[C@@H](OC2CCCCC2)O[C@@H]2O[C@@]3(C)CC[C@H]4[C@H](C)CC[C@@H]1[C@@]24OO3` [Example 1-20, (3R,5aS,6R,8aS,9R,10S,12R,12aR)-10-(cyclohexyloxy)-3,6,9-trimethyldecahydro-12H-3,12-epoxypyrano[4,3-j][1,2]benzodioxepine]: the KLS-positive rate runs as follows: (compound 0.1 μM) 0.0%; (compound 0.3 μM) 0.0%; (compound 1 μM) 0.0%; (compound 3 μM) 0.0%; (compound 10 μM) 0.0%. Moreover, the Viable cell count is, setting by setting: (compound 0.1 μM) 0.0 cell; (compound 0.3 μM) 0.0 cell; (compound 1 μM) 1.0 cell; (compound 3 μM) 0.5 cell; (compound 10 μM) 0.5 cell. The mCherry-positive rate (compound 0.1 μM) is 0.0%; the mCherry-positive rate (compound 0.3 μM) turned out to be 0.0%; the mCherry-positive rate (compound 1 μM) is on record as 0.0%; the mCherry-positive rate (compound 3 μM) is recorded as 50.0%; the mCherry-positive rate (compound 10 μM) was determined as 50.0%.
As for `C[C@H]1[C@@H](Oc2ccccc2)O[C@@H]2O[C@@]3(C)CC[C@H]4[C@H](C)CC[C@@H]1[C@@]24OO3` [Example 1-21, (3R,5aS,6R,8aS,9R,10S,12R,12aR)-3,6,9-trimethyl-10-phenoxydecahydro-12H-3,12-epoxypyrano[4,3-j][1,2]benzodioxepine], the KLS-positive rate is given as 0.0% (compound 0.1 μM); 0.0% (compound 0.3 μM); 0.0% (compound 1 μM); 0.0% (compound 3 μM); 0.0% (compound 10 μM). Besides, the Viable cell count reads like this: (compound 0.1 μM) 0.0 cell; (compound 0.3 μM) 2.0 cell; (compound 1 μM) 0.5 cell; (compound 3 μM) 0.5 cell; (compound 10 μM) 0.5 cell. Moreover, the mCherry-positive rate came to 0.0% (compound 0.1 μM); 50.0% (compound 0.3 μM); 0.0% (compound 1 μM); 50.0% (compound 3 μM); 50.0% (compound 10 μM).
